Test results published in patent US5478928A, “2',3'-dideoxy-4'-thioribonucleosides and synthetic precursors thereof” (priority 1993, dated 1995).
≈ marks a conversion by molar mass, not a printed value. Like-named read-outs stand apart in the source and are kept apart here.

Key:
[1] = test system: MT-2 cells infected with HIV virus (HIV-1 isolates IIIB and/or RF); assay: Inhibition of HIV cytopathogenic effects (CPE) in MT-2 cells (MTT); type: cell-based; conditions: for TAI (total antiviral index): area between the cytotoxicity and the antiviral curves; for IC50: Human immunodeficiency virus 1, IIIB; for SI (selectivity index): TC25 divided by the ID50
Description: (§1) Compounds of the present invention are readily screened for anti-HIV activity by the following standard screening assay in CEM and MT2 cells.
(§2) 1. Compound dilution and delivery to the plates. Test compounds are solubilized in the appropriate vehicle such as distilled water, DMSO, methyl alcohol, or other vehicle. The maximum solubility is determined as appropriate. Latex gloves, lab coats, and masks are used during all phases of the handling process to prevent exposure to potentially harmful agents. At highest solubility, the test compound is prepared and stored at -20° C. until used by the screening laboratory. The first dilution of each compound is made tube with medium to yield a concentration two-fold that of the highest test concentration. Sterile titer tubes are then used to make serial one half log dilutions of each compound. Following dilution, the diluted compound is added to the appropriate well of a 96-well microtiter plate. Up to 12 dilutions can be conveniently assayed in triplicate on a single plate with all appropriate controls, including cell control, virus control, toxicity control, drug color control, medium control and plastic control. When testing includes only six dilutions, two drugs can be assayed on a single microtiter plate. The test compounds are added to the plate in a final volume of 100 microliters.
(§3) 2. Cells and virus. During the time that the test compound dilutions are prepared, cells are washed and counted. Viability is monitored by trypan blue dye exclusion and assays are not performed if the viability falls below 90%. Cells are maintained in an exponential growth phase and are split 1:2 on the day prior to assay to assure adequate growth rate. For the primary screen, the cell line utilized is CEM cells. […] However, both cell lines are available and being used at all times and can be substituted or used in addition to CEM cells as requested. Unless otherwise indicated, the medium is phenol red-free RPMI 1640 with 10% heat-inactivated fetal calf serum (FBS), glutamine and antibiotics. Cells are propagated at 37° C. in an atmosphere of 5% CO2 in air. The virus employed for this work is HIV-1 isolates IIIB and/or RF prepared by the acute infection process as follows: Briefly, virus infected cells are pelleted on a daily basis beginning at three days postinfection until the virus has killed all of the cells in the culture. Reverse transcriptase activity and p24 ELISA are used to identify pools with the greatest amount of virus. These 24-hour harvests are pooled, filtered and frozen at -90° C. Prior to use in the assay the virus is titered on all available cell lines in order to determine the amount of virus required in the assay. In general, pools produced by the acute virus method require the addition of one microliter of infectious virus per well resulting in the screening of drugs on a multiplicity of infection of 0.01. In this manner enough virus is prepared and frozen to complete over one thousand microtiter plates, allowing the testing of up to two thousand compounds from a single stock. […] Virus infection of the CEM cells is carried in a bulk infection process. The appropriate number of cells required to complete the assay are mixed with infectious virus in a conical centrifuge tube in a small total volume of 1-2 milliliters. Following a one hour incubation the infected cells are brought to the appropriate final concentration of 5×10^4 cells per milliliter with fresh tissue culture medium and 100 microliters are added to the appropriate experimental and virus control wells. Uninfected cells at the same concentration are plated for the toxicity controls and for the cell controls.
(§4) 3. Evaluation of CPE-inhibition. Following the addition of cells and test compounds to the microtiter plate, the plate is incubated for 6 days at 37° C.

[2] = test system: CEM cells infected with HIV virus (HIV-1 isolates IIIB and/or RF); assay: Inhibition of HIV cytopathogenic effects (CPE) in CEM cells (MTT); type: cell-based; conditions: for TAI (total antiviral index): area between the cytotoxicity and the antiviral curves; for SI (selectivity index): TC25 divided by the ID50; for IC50: Human immunodeficiency virus 1, IIIB, CCRF-CEM, read-out: IC50 (minimum drug concentration that inhibited CPE by 50%)
Description: as §1, §2, §3, §4

MT-2 cells = assay: Cytotoxicity (cell viability) in MT-2 cells
Description: as §1, §2, §3, §4

CEM cells = assay: Cytotoxicity (cell viability) in CEM cells
Description: as §1, §2, §3, §4

AIDS = conditions: cited from earlier work
[3] = MT-2 cells, means of several experiments
[4] = CEM cells, means of several experiments
[5] = MT2, MT-2 cells, means of several experiments, read-out: IC50 (minimum drug concentration that inhibited CPE by 50%)

Row | IC50 [2, 4] [µg/mL] | SMILES | TAI (total antiviral index) ([1]; MT-2 cells) | TAI (total antiviral index) ([2]; CEM cells) | TC25 (minimum drug concentration that reduced cell viability by 25%) (MT-2 cells; [3]) [µg/mL] | TC25 (minimum drug concentration that reduced cell viability by 25%) (CEM cells; [4]) [µg/mL] | SI (selectivity index) ([2]; CEM cells) | further results
1 |  | Cc1cn([C@H]2CC[C@@H](CO)S2)c(=O)[nH]c1=O [4'-thio-3'-deoxythymidine, 4'-Thio-3'-deoxythymidine] | > 4.0 | 4.0 | > 100 | > 150 |  | 
2 |  | Nc1ncnc2c1ncn2[C@H]1CC[C@@H](CO)S1 [4-'-thio-2'3'-dideoxyadenosine, 4'-Thio-2',3'-dideoxyadenosine] | > 17 |  | > 100 |  |  | IC50 [1, 5]: 80 µg/mL (≈ 318 µM); SI (selectivity index) ([1]; MT-2 cells): 1.3
3 | 0.05 (≈ 0.237 µM) | Nc1ccn([C@H]2CC[C@@H](CO)O2)c(=O)n1 [DDC, dideoxycytidine, reference compound] | > 52 | > 63 |  |  | 120 | IC50 [1, 5]: 0.44 µg/mL (≈ 2.08 µM); TC25 (minimum drug concentration that reduced cell viability by 25%) (MT-2 cells; human): > 9.8 µg/mL; TC25 (minimum drug concentration that reduced cell viability by 25%) (CEM cells; human): 5.3 µg/mL (≈ 25.1 µM); side effects (AIDS): undesirable side effects
4 |  | Nc1nc(Cl)nc2c1ncn2[C@H]1CC[C@@H](CO)S1 [9-(4-Thio-2,3-dideoxy-D-ribofuranosyl)-2-chloro-6-aminopurine] |  |  |  | 5.74 (≈ 20.1 µM) |  | 
5 |  | CNc1ncnc2c1ncn2[C@H]1CC[C@@H](CO)S1 [N^6 -Methyl-4'-thio-2',3'-dideoxyadenosine] | 1.0 |  | > 100 |  |  | 
6 | 37 (≈ 139 µM) | Nc1nc(N)c2ncn([C@H]3CC[C@@H](CO)S3)c2n1 [9-(4-Thio-2,3-dideoxy-D-ribofuranosyl)-2,6-diaminopurine] |  | 21.0 |  | 97.0 (≈ 364 µM) | 2.6 | 
7 | 1 (≈ 4.4 µM) | Nc1ccn([C@H]2CC[C@@H](CO)S2)c(=O)n1 [4'-thio-2',3'-dideoxycytidine, 4'-Thio-2',3'-dideoxycytidine] |  | > 65 |  | > 100 | > 100 | 
8 |  | OC[C@@H]1CC[C@H](n2cnc3c(O)ncnc32)S1 [4'-thio-2',3'-dideoxyinosine, 4'-Thio-2',3'-dideoxyinosine] | > 4.0 |  | > 100 |  |  | 
9 | 0.45 (≈ 1.59 µM) | Cc1cn([C@H]2C[C@H](N=[N+]=[N-])[C@@H](CO)S2)c(=O)[nH]c1=O |  | > 60.15 |  | > 100 | > 222.02 | 
10 |  | OC[C@@H]1CC[C@H](n2cnc3c(Cl)ncnc32)S1 [9-(4-Thio-2,3-dideoxy-D-ribofuranosyl)-6-chloropurine] | 0.0 |  | 21 (≈ 77.6 µM) |  |  | 
11 |  | Nc1nc2c(ncn2[C@H]2CC[C@@H](CO)S2)c(=O)[nH]1 [4'-thio-2',3'-dideoxy-guanosine, 4'-Thio-2',3'-dideoxy-guanosine] | 11.0 | 0.0 | > 200 | > 100 |  | IC50 [1, 5]: 98 µg/mL (≈ 367 µM); SI (selectivity index) ([1]; MT-2 cells): 1.6
12 |  | Cc1cn([C@H]2C[C@H](N=[N+]=[N-])[C@@H](CO)O2)c(=O)[nH]c1=O [AZT, 3'-azido-3'-deoxythymidine, reference compound] | > 82 | > 93 | 9.3 (≈ 34.8 µM) | > 10 | > 313 | IC50 ([1]; MT2, read-out: IC50 (minimum drug concentration that inhibited CPE by 50%)): 0.14 µg/mL (≈ 0.524 µM); SI (selectivity index) ([1]; MT-2 cells): > 160; IC50 [2]: < 0.03 µg/mL; potency for the treatment of AIDS (AIDS; background): particularly potent; side effects (AIDS; background): undesirable side effects
13 |  | O=c1[nH]cnc2c1ncn2[C@H]1CC[C@@H](CO)O1 [dideoxyinosine] |  |  |  |  |  | side effects (AIDS): undesirable side effects
